In brackets after ≈: the same amount, converted by molar mass. Activity calls are given as the source filed them. No cut-off for these calls is given here.
Experiments:
[1] = system: Staphylococcus aureus; assay: Antimicrobial activity against methicillin-sensitive Staphylococcus aureus ATCC 29213 after 20 hrs by twofold serial dilution method; format: functional; conditions: ATCC 29213, 20 h
[2] = system: Staphylococcus aureus; assay: Antibacterial activity against Staphylococcus aureus RN450 bearing RPSD antisense S1-782B plasmid after 18 hrs by rpsD sensitized two-plate differential sensitivity assay; format: functional, organism-based
[3] = system: Staphylococcus aureus; assay: Antibacterial activity against Staphylococcus aureus RN450 bearing RPSD antisense S1-782B plasmid at 1000 ug/mL after 18 hrs by rpsD sensitized two-plate differential sensitivity assay; format: functional; conditions: RN450, 18 h, read-out: IZ
[4] = system: Staphylococcus aureus; assay: Antibacterial activity against wild-type Staphylococcus aureus RN450 at 1000 ug/mL after 18 hrs by rpsD sensitized two-plate differential sensitivity assay; format: functional; conditions: RN450, 18 h, read-out: IZ
[5] = system: Staphylococcus aureus; assay: Antibacterial activity against Staphylococcus aureus RN450 bearing RPSD antisense S1-782B plasmid assessed as faint zone of clearance at 31.25 ug/mL after 18 hrs by rpsD sensitized two-plate differential sensitivity assay; format: functional; conditions: RN450, 18 h, read-out: IZ
[6] = system: Staphylococcus aureus; assay: Antibacterial activity against wild-type Staphylococcus aureus RN450 assessed as faint zone of clearance at 31.25 ug/mL after 18 hrs by rpsD sensitized two-plate differential sensitivity assay; format: functional, organism-based
[7] = system: Staphylococcus aureus; assay: Antibacterial activity against Staphylococcus aureus RN450 bearing RPSD antisense S1-782B plasmid assessed as minimum detection concentration after 18 hrs by rpsD sensitized two-plate differential sensitivity assay; format: functional
[8] = system: Staphylococcus aureus; assay: Antimicrobial activity against methicillin-sensitive Staphylococcus aureus MB2865 after 20 hrs by twofold serial dilution method; format: functional
[9] = system: Staphylococcus aureus; assay: Antimicrobial activity against methicillin-sensitive Staphylococcus aureus MB2865 after 20 hrs by twofold serial dilution method in presence of 50% human serum; format: functional
[10] = system: Streptococcus pneumoniae; assay: Antimicrobial activity against drug-sensitive Streptococcus pneumoniae CL2883 in CAMHB medium containing 2.5% horse blood after 20 hrs by twofold serial dilution method; format: functional
[11] = system: Streptococcus pneumoniae; assay: Antimicrobial activity against drug-sensitive Streptococcus pneumoniae CL2883 in isosensitet medium after 20 hrs by twofold serial dilution method; format: functional
[12] = system: Enterococcus faecalis; assay: Antimicrobial activity against vancomycin-sensitive macrolide-resistant Enterococcus faecalis CL8516 after 20 hrs by twofold serial dilution method; format: functional
[13] = system: Bacillus subtilis; assay: Antimicrobial activity against wild-type Bacillus subtilis MB964 after 20 hrs by twofold serial dilution method; format: functional
[14] = system: Haemophilus influenzae; assay: Antimicrobial activity against drug-sensitive Haemophilus influenzae MB4572 after 20 hrs by twofold serial dilution method; format: functional
[15] = system: Escherichia coli; assay: Antimicrobial activity against wild-type Escherichia coli MB2884 after 20 hrs by twofold serial dilution method; format: functional
[16] = system: Escherichia coli; assay: Antimicrobial activity against Escherichia coli MB5746 envA1, tolC mutant after 20 hrs by twofold serial dilution method; format: functional
[17] = system: Candida albicans; assay: Antimicrobial activity against wild-type Candida albicans MY1055 after 20 hrs by twofold serial dilution method; format: functional; conditions: MY1055, 20 h
[18] = system: Staphylococcus aureus; assay: Antimicrobial activity against methicillin-sensitive Staphylococcus aureus ATCC 29213 at 16 ug/mL after 20 hrs by twofold serial dilution method; format: functional
[19] = system: Staphylococcus aureus; assay: Antimicrobial activity against methicillin-sensitive Staphylococcus aureus MB2865 at 4 ug/mL after 20 hrs by twofold serial dilution method; format: functional
[20] = system: Streptococcus pneumoniae; assay: Antimicrobial activity against drug-sensitive Streptococcus pneumoniae CL2883 in isosensitet medium at 2 ug/mL after 20 hrs by twofold serial dilution method; format: functional
[21] = system: HeLa; assay: Cytotoxicity against human HeLa cells; format: functional, cell-based
[22] = system: Staphylococcus aureus; assay: Inhibition of RNA synthesis in Staphylococcus aureus assessed as [3H]uracil incorporation by scintillation counting; format: functional, organism-based
[23] = system: Staphylococcus aureus; assay: Inhibition of DNA synthesis in Staphylococcus aureus assessed as [3H]thymidine incorporation by scintillation counting; format: functional, organism-based
[24] = system: Staphylococcus aureus; assay: Inhibition of protein synthesis in Staphylococcus aureus assessed as [3H]leucine incorporation by scintillation counting; format: functional, organism-based
[25] = system: Staphylococcus aureus; assay: Ratio of IC50 for RNA synthesis to IC50 for DNA synthesis in Staphylococcus aureus; format: functional
[26] = system: Staphylococcus aureus; assay: Ratio of IC50 for RNA synthesis to IC50 for protein synthesis in Staphylococcus aureus; format: functional

With `Cc1cc(O)c2c(c1)C(=O)C1=C(C2=O)[C@@H](O)[C@@H](O)[C@@H](O)C1` [PLEOSPORONE] the MIC [1] was over 64 µg/mL, the MIC80 [1] was 4 µg/mL (≈ 13.8 µM) and the Activity [2] was “Dose-dependent effect”. It also gave a zone of inhibition at 1000 µg/mL [3] of 21.8 mm, a zone of inhibition at 1000 µg/mL [4] of 19.2 mm and a zone of inhibition at 31.25 µg/mL [5] of 9 mm. The Activity [6] was “inactive”, the Activity [7] was 31.25 µg/mL and the MIC [8] was 64 µg/mL (≈ 220 µM). The MIC [9] was over 64 µg/mL, the MIC [10] was 4 µg/mL (≈ 13.8 µM) and the MIC [11] was 4 µg/mL (≈ 13.8 µM). The MIC [12] was 64 µg/mL (≈ 220 µM), the MIC [13] was 8 µg/mL (≈ 27.6 µM) and the MIC [14] was 1 µg/mL (≈ 3.45 µM). The MIC [15] was over 64 µg/mL, the MIC [16] was 16 µg/mL (≈ 55.1 µM) and the MIC [17] was over 64 µg/mL. The Activity [18] was 80%, the Activity [19] was 80% and the Activity [20] was 80%. It also gave an IC50 [21] of 0.23 µg/mL (≈ 0.792 µM), an IC50 [22] of 1.3 µg/mL (≈ 4.48 µM) and an IC50 [23] of 8.4 µg/mL (≈ 28.9 µM). The IC50 [24] was 15.4 µg/mL (≈ 53.1 µM), the “Ratio IC50” value [25] was 6 and the “Ratio IC50” value [26] was 6.

Reference: ChEMBL document CHEMBL1154489, “Isolation, structure and antibacterial activity of pleosporone from a pleosporalean ascomycete discovered by using antisense strategy” (Bioorg Med Chem, 2009)
